Measurements published in patent US20150266836A1, “AROMATIC SULFIDE COMPOUNDS AND METHODS AND USE THEREOF” (The Regents of the University of California, priority 2014, published 2015).

System: MCF-7 breast cancer cell line
Experiment: Proliferation-based anti-breast-cancer assay (CyQUANT Cell Proliferation Assay) against MCF-7 cells
Conditions: Homo sapiens, MCF7, dose-response, 10 concentrations serially diluted from 120 μM, DMEM 2% FBS, normalized to DMSO vehicle, read-out: inhibition of MCF-7 cell proliferation, EC50
Procedure: Biological experiments were performed according to a modified procedure by Sigman et al.
MCF-7 cells were maintained in DMEM/high glucose supplemented with 10% FBS, L-glutamine, and penicillin/streptomycin. Experiments with MCF-7 cells were performed in DMEM/high glucose supplemented with 2% FBS, L-glutamine, and penicillin/streptomycin. MCF-10A cells were maintained in standard medium according to a modified recipe by Brugge et al. DMEM/F12 supplemented with 5% horse serum, 10 μg/mL of human insulin, 0.5 μg/mL of hydrocortisone, 10 ng/mL of EGF, 100 ng/mL of cholera toxin, and penicillin/streptomycin. Experiments with MCF-10A cells were performed in the same medium.
MCF-7 cells were centrifuged in 1×PBS for 20 min, and then the pellet was resuspended in DMEM supplemented with 10% FBS and filtered through a 40 μm nylon cell strainer (Fisher Scientific) to prevent clumping. The cells were seeded at 1500 cells per well in 96-well flat bottom plates suitable for fluorimetry, using 175 μL per well of DMEM supplemented with 10% FBS, and grown for 24 h in 5% CO2 at 37° C. The compounds (including the faslodex positive control) were dissolved in molecular biology grade DMSO to achieve a 3.5 mM stock solution and then sterile filtered through a 0.45 μm PVDF syringe filter unit (Fisher Scientific). The 3.5 mM stock solutions were subsequently diluted to a final concentration of 10 μM in DMEM supplemented with 2% FBS. Additionally, the corresponding DMSO vehicle control was diluted using the same medium.
After 24 h of growth, the cells were treated by replacing the normal media with fresh media containing the individual compounds or vehicle control (day 0). The outer rows of wells were not used to eliminate the possibility of effects due to evaporation of media. The cells were incubated with compound for 48 h and then treated again by aspirating the media and adding fresh media containing the compounds and controls (day 2). This procedure was repeated after an additional 48 h (day 4). After incubating a final 24 h, the 96-well plates were rinsed with 1×PBS, blotted dry, and then frozen at −78° C. overnight (day 5). On day 6, cell proliferation was measured using the fluorescence-based CyQUANT Cell Proliferation Assay Kit (Invitrogen).
Fluorimetry analysis was performed according to a modified procedure by McGowan et al. Cells were stained with 200 μL/well of 1× CyQUANT GR dye in cell lysis buffer for 10 min in the dark at room temperature and quantified by fluorimetry at 535 nm with 485 nm excitation. The fluorescence values were normalized to the DMSO vehicle control. The normalized values were plotted as an average±standard deviation of 6 wells per compound.
MCF-7 cells were centrifuged in 1×PBS for 20 min, and then the pellet was resuspended in DMEM supplemented with 10% FBS and filtered through a 40 μm nylon cell strainer (Fisher Scientific) to prevent clumping. The cells were seeded at 1500 cells per well in 96-well flat bottom plates suitable for fluorimetry, using 175 μL, per well of DMEM supplemented with 10% FBS, and grown for 24 h in 5% CO2 at 37° C. The compounds 19 and 25 were dissolved in molecular biology grade DMSO to achieve a 42 mM stock and then sterile filtered through a 0.45 μm PVDF syringe filter unit (Fisher Scientific). […]
Addition of compounds was performed as specified above for days 0-6. […] The fluorescence values were normalized to the DMSO vehicle controls corresponding to each concentration.

Structure (SMILES) | EC50 [µM]
COc1cc(Sc2nc3ccccc3o2)cc(OC)c1OC [Compound 25, 2-(3,4,5-Trimethoxyphenylthio)benzoxazole] | 4.5
c1ccc(Sc2nnc(-c3ccccc3)o2)cc1 [Compound 19, 2-Phenyl-5-(phenylthio)-1,3,4-oxadiazole] | 7.9

Same assay, conditions: compounds at 10 μM, compared to faslodex (ICI 182,780), FIG. 1

Structure (SMILES) | anticancer activity: inhibition of MCF-7 cell proliferation (result in words)
c1ccc(Sc2nc3ccccc3o2)cc1 [Compound 16, 2-Phenylthiobenzoxazole] | inactive
COc1cc(Sc2nnc(-c3ccccc3)o2)cc(OC)c1OC [Compound 27, 2-Phenyl-5-(3,4,5-trimethoxyphenylthio)-1,3,4-oxadiazole] | performed poorly
c1ccc(Sc2nc3ccccc3s2)cc1 [Compound 15, 2-Phenylthiobenzothiazole] | inactive

System: not given
Experiment: not given
Conditions: not given

Structure (SMILES) | melting point [°C]
COc1cc(Sc2ncccn2)cc(OC)c1OC [Compound 24, 2-(3,4,5-Trimethoxyphenylthio)pyrimidine] | 103 to 104
COc1cc(Sc2nnnn2-c2ccccc2)cc(OC)c1OC [Compound 26, 1-Phenyl-5-(3,4,5-trimethoxyphenylthio)-1H-tetrazole] | 110 to 111
COc1cc(Sc2nc3ccccc3o2)cc(OC)c1OC [Compound 25, 2-(3,4,5-Trimethoxyphenylthio)benzoxazole] | 129 to 130
c1ccc(Sc2nnnn2-c2ccccc2)cc1 [Compound 18, 1-Phenyl-5-(phenylthio)-1H-tetrazole] | 129 to 133
COc1cc(Sc2nnc(-c3ccccc3)o2)cc(OC)c1OC [Compound 27, 2-Phenyl-5-(3,4,5-trimethoxyphenylthio)-1,3,4-oxadiazole] | 142
Fc1c(F)c(F)c(Sc2ccccc2)c(F)c1F [Compound 11, (Perfluorophenyl)(phenyl)sulfane] | 45 to 48
N#Cc1cccc(Sc2ncccn2)c1 [Compound 23, 3-(Pyrimidin-2-ylthio)benzonitrile] | 71 to 73
